Laboratory results published in article PMC11299051 (Molecular informatics, 2023).

Assays:
[1] = molecular target: RdRp (Nsp12 domain) (Severe acute respiratory syndrome coronavirus 2, UniProt P0DTD1); assay: biochemical; assay type: binding, SARS-CoV-2
[2] = tested on: SARS-CoV-2; conditions: in vivo; cited from earlier work

Compound | binding to Nsp12 (in words) [1] | also measured
FC(F)(F)c1ccc2nnc(CNC(=O)c3ccc4 C(=O)N5CCC-CCC5=Nc4c3)n2c1 | led to Nsp12 aggregation, so no KD could be determined | –
Cn1cnc(Cn2c(=O)[nH]/c(=N\c3cc4cn(C)nc4cc3Cl)n(Cc3cc(F)c(F)cc3F)c2=O)n1 [Ensitrelivir] | – | decrease viral clearance [2]: 50 h
Cc1ccc(NC(=O)c2ccc(nc2O)C2CC2)c(O)c1 | led to Nsp12 aggregation, so no KD could be determined | –
Cc1ccc(C(=O)Nc2ccc(S(=O)(=O)O)c3cc(S(=O)(=O)O)cc(S(=O)(=O)O)c23)cc1NC(=O)c1cccc(NC(=O)Nc2cccc(C(=O)Nc3cc(C(=O)Nc4ccc(S(=O)(=O)O)c5cc(S(=O)(=O)O)cc(S(=O)(=O)O)c45)ccc3C)c2)c1 [Suramin] | – | Kd [1]: 0.827 ± 0.306 µM
N#C[C@@]1(c2ccc3c(N)ncnn23)O[C@H](COP(=O)(O)OP(=O)(O)OP(=O)(O)O)[C@@H](O)[C@H]1O [GS-443902] | could not detect binding | –
Nc1nnnn1-c1cccc(c1)C(=O)NCc1cc(F)ccc1Oc1ccc(F)c-c(Cl)c1 | led to Nsp12 aggregation, so no KD could be determined | –
